We go through two compounds from US20040097728A1, “Method for producing anellated tetrahydro-{1h}-triazoles” (priority 2000, published 2004).

One data set concerns CHEAL. As to the kind of experiment: greenhouse herbicidal action, post-emergence treatment. It counts as in vivo, lambsquarters (goosefoot). The note with it: post-emergence method, application rates of 7.8 and 3.9 g of a.s./ha. The source says:
(§1) The seeds of the test plants were sown separately for each species. For the post-emergence treatment, the test plants were first grown to a height of 3 to 15 cm, depending on the plant habit, and then treated with the active compounds which had been suspened or emulsified in water. To this end, the test plants were either sown directly and grown in the same containers, or they were first grown separately as seedlings and transplanted into the test containers a few days prior to the treatment. The application rates for the post-emergence treatments were 62.5, 31.2, 15.6, 7.8 and 3.9 g of a.s./ha. Depending on the species, the plants were kept at 10-25° C. or 20-35° C. The test period extended over 2 to 4 weeks. During this time, the plants were tended, and their response to the individual treatments was evaluated. Evaluation was carried out using a scale from 0 to 100. 100 means no emergence of the plants, or complete destruction of at least the above-ground parts, and O means no damage, or normal course of growth. The plants used in the greenhouse experiments were of the following species: [table]

A further data set deals with PHBPU. The description is as above. It counts as in vivo, common morning glory. The note with it: post-emergence method, application rates of 7.8 and 3.9 g of a.s./ha.
From the text: as §1

The test system of the next data set is AMARE. Described as above. In kind it is in vivo, common amaranth. Conditions: post-emergence method, application rates of 7.8 and 3.9 g of a.s./ha.
From the text: as §1

The next data set concerns ABUTH. The description is as above. It counts as in vivo, velvet leaf. Conditions: post-emergence method, application rates of 7.8 and 3.9 g of a.s./ha.
From the text: as §1

“2-[4-Chloro-2-fluoro-5-(2-propynyloxy)phenyl]-3-thiotetrahydro-1H-(1,2,4)triazolo[1,2-c][1,3,4]oxadiazin-1-one [Example 5]”: the “herbicidal activity against CHEAL” value with CHEAL is given as “very good”. In the data set with PHBPU, the “herbicidal activity against PHPBU” value is reported as “very good”. In addition, in the data set on AMARE, the “herbicidal activity against AMARE” value is “very good”. In the data set on ABUTH, the “herbicidal activity against ABUTH” value is given as “very good”.
Compound `C#CCOc1cc(-n2c(=O)n3n(c2=S)COCC3)c(F)cc1C#N` [Example 75, 2-[4-Cyano-2-fluoro-5-(propargyloxy)phenyl]-3-thioxotetrahydro-1H-[1,2,4]-triazolo-[1,2-c][1,3,4]-oxadiazin-1-one] yielded a melting point of 226 to 227 °C.
